Measurements reported in ChEMBL document CHEMBL1201862, “PubChem BioAssay data set” (2004).
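Values below derive from 48-hour exposures of cells grown in 96-well plates, with endpoints linearly interpolated between the two concentrations bracketing the appropriate inhibition level. GI50 marks 50% less growth.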 Active and inactive are the calls of the source. Cut-off read from the data, not from the text of the source: active = GI50 up to about 1.1 µM and inactive = higher.

Tests used:
Assay in all cases: inhibition of tumour cell growth, NCI panel, 48 h
[1] = test system: UACC-257
[2] = test system: M14
[3] = test system: UACC-62
[4] = test system: SNB-19
[5] = test system: IGROV-1
[6] = test system: K562
[7] = test system: SF-268
[8] = test system: SR
[9] = test system: MDA-MB-231
[10] = test system: HCC 2998
[11] = test system: HOP-62
[12] = test system: SK-MEL-2
[13] = test system: HOP-92
[14] = test system: NCI/ADR-RES
[15] = test system: Malme-3M
[16] = test system: KM12
[17] = test system: NCI-H522
[18] = test system: MDA-N
[19] = test system: A549
[20] = test system: SK-MEL-28
[21] = test system: CCRF-CEM
[22] = test system: SW-620
[23] = test system: SF-539
[24] = test system: NCI-H23
[25] = test system: NCI-H460
[26] = test system: SNB-75
[27] = test system: MCF7
[28] = test system: PC-3
[29] = test system: A498
[30] = test system: U-251
[31] = test system: HCT-15
[32] = test system: OVCAR-3
[33] = test system: CAKI-1
[34] = test system: 786-0
[35] = test system: HL-60
[36] = test system: DU-145
[37] = test system: T47D
[38] = test system: HT-29
[39] = test system: EKVX
[40] = test system: SK-MEL-5
[41] = test system: OVCAR-8
[42] = test system: ACHN
[43] = test system: RXF 393
[44] = test system: SN12C
[45] = test system: MOLT-4
[46] = test system: COLO 205
[47] = test system: UO-31
[48] = test system: RPMI-8226
[49] = test system: BT-549
[50] = test system: HCT-116
[51] = test system: MDA-MB-435
[52] = test system: OVCAR-5
[53] = test system: SF-295
[54] = test system: TK-10
[55] = test system: LOX IMVI
[56] = test system: OVCAR-4
[57] = test system: NCI-H226
[58] = test system: SK-OV-3
[59] = test system: Hs-578T

Structure (SMILES): COc1c2cc(C(C)(C)C)cc1Cc1cccc(c1OCc1cccc([N+](=O)[O-])c1)Cc1cc(C(C)(C)C)cc(c1OC)Cc1cccc(c1OCc1cccc([N+](=O)[O-])c1)Cc1cc(C(C)(C)C)cc(c1OC)Cc1cccc(c1OCc1cccc([N+](=O)[O-])c1)C2
- GI50 [1]: > 50 µM (inactive)
- GI50 [2]: > 50 µM (inactive)
- GI50 [3]: > 50 µM (inactive)
- GI50 [4]: > 50 µM (inactive)
- GI50 [5]: > 50 µM (inactive)
- GI50 [6]: > 50 µM (inactive)
- GI50 [7]: > 50 µM (inactive)
- GI50 [8]: > 50 µM (inactive)
- GI50 [9]: > 50 µM (inactive)
- GI50 [10]: > 50 µM (inactive)
- GI50 [11]: > 50 µM (inactive)
- GI50 [12]: > 50 µM (inactive)
- GI50 [13]: > 50 µM (inactive)
- GI50 [14]: > 50 µM (inactive)
- GI50 [15]: > 50 µM (inactive)
- GI50 [16]: > 50 µM (inactive)
- GI50 [17]: > 50 µM (inactive)
- GI50 [18]: > 50 µM (inactive)
- GI50 [19]: > 50 µM (inactive)
- GI50 [20]: > 50 µM (inactive)
- GI50 [21]: > 5 µM (inactive)
- GI50 [22]: > 50 µM (inactive)
- GI50 [23]: > 50 µM (inactive)
- GI50 [24]: > 50 µM (inactive)
- GI50 [25]: > 50 µM (inactive)
- GI50 [26]: 23.3 µM (inactive)
- GI50 [27]: > 50 µM (inactive)
- GI50 [28]: > 50 µM (inactive)
- GI50 [29]: > 50 µM (inactive)
- GI50 [30]: > 50 µM (inactive)
- GI50 [31]: > 50 µM
- GI50 [32]: > 50 µM (inactive)
- GI50 [33]: > 50 µM (inactive)
- GI50 [34]: > 50 µM (inactive)
- GI50 [35]: > 50 µM (inactive)
- GI50 [36]: > 50 µM (inactive)
- GI50 [37]: > 50 µM (inactive)
- GI50 [38]: > 50 µM (inactive)
- GI50 [39]: > 50 µM (inactive)
- GI50 [40]: > 50 µM (inactive)
- GI50 [41]: > 50 µM (inactive)
- GI50 [42]: > 50 µM (inactive)
- GI50 [43]: > 50 µM (inactive)
- GI50 [44]: > 50 µM (inactive)
- GI50 [45]: > 50 µM (inactive)
- GI50 [46]: > 50 µM (inactive)
- GI50 [47]: > 50 µM (inactive)
- GI50 [48]: > 50 µM (inactive)
- GI50 [49]: 0.005 µM (active)
- GI50 [50]: > 50 µM (inactive)
- GI50 [51]: > 50 µM (inactive)
- GI50 [52]: > 50 µM (inactive)
- GI50 [53]: > 50 µM (inactive)

Structure (SMILES): COc1ccc(/N=N/c2c(C)c(C#N)c(=S)n(C3OC(COC(C)=O)C(OC(C)=O)C(OC(C)=O)C3OC(C)=O)c2-c2ccccc2)cc1 (stereo not drawn)
- GI50 [1]: 22.4 µM (inactive)
- GI50 [2]: 1.94 µM (inactive)
- GI50 [4]: 11 µM (inactive)
- GI50 [6]: 4.52 µM (inactive)
- GI50 [7]: 9.59 µM (inactive)
- GI50 [8]: 4.07 µM (inactive)
- GI50 [9]: 6.04 µM (inactive)
- GI50 [10]: 23.4 µM (inactive)
- GI50 [11]: 11.6 µM (inactive)
- GI50 [12]: 8.04 µM (inactive)
- GI50 [13]: 4.01 µM (inactive)
- GI50 [14]: 3.39 µM (inactive)
- GI50 [15]: 7.23 µM (inactive)
- GI50 [16]: 8.43 µM (inactive)
- GI50 [18]: 9.1 µM (inactive)
- GI50 [54]: 19.2 µM (inactive)
- GI50 [19]: 8.18 µM (inactive)
- GI50 [20]: 7.98 µM (inactive)
- GI50 [21]: 4.94 µM (inactive)
- GI50 [22]: 2.92 µM (inactive)
- GI50 [23]: > 10 µM (inactive)
- GI50 [24]: 15.6 µM (inactive)
- GI50 [55]: 5.42 µM (inactive)
- GI50 [25]: 4.76 µM (inactive)
- GI50 [27]: 4.62 µM (inactive)
- GI50 [28]: 5.98 µM (inactive)
- GI50 [29]: 1.5 µM (inactive)
- GI50 [30]: 10.7 µM (inactive)
- GI50 [31]: 14.9 µM
- GI50 [32]: 13.9 µM (inactive)
- GI50 [33]: 9.48 µM (inactive)
- GI50 [34]: 3.12 µM (inactive)
- GI50 [35]: 3.13 µM (inactive)
- GI50 [36]: 7.03 µM (inactive)
- GI50 [37]: 19.4 µM (inactive)
- GI50 [38]: 5.94 µM (inactive)
- GI50 [42]: 46.9 µM (inactive)
- GI50 [43]: 11.5 µM (inactive)
- GI50 [44]: 7.96 µM (inactive)
- GI50 [45]: 3.08 µM (inactive)
- GI50 [46]: 6.93 µM (inactive)
- GI50 [47]: 39.8 µM (inactive)
- GI50 [48]: 5.65 µM (inactive)
- GI50 [49]: 5.33 µM (inactive)
- GI50 [50]: 4.32 µM (inactive)
- GI50 [51]: 10.3 µM (inactive)
- GI50 [56]: 3.15 µM (inactive)
- GI50 [52]: 13.2 µM (inactive)
- GI50 [53]: 5.85 µM (inactive)

Structure (SMILES): Cc1ccc(C(=O)c2[nH]c(NCc3ccccc3)c(C(=S)Nc3ccccc3)c2N)cc1
- GI50 [1]: 5.75 µM (inactive)
- GI50 [2]: 1.95 µM (inactive)
- GI50 [3]: 11.8 µM (inactive)
- GI50 [4]: 14.7 µM (inactive)
- GI50 [5]: 7.35 µM (inactive)
- GI50 [6]: 2.13 µM (inactive)
- GI50 [7]: 12.9 µM (inactive)
- GI50 [9]: 6.55 µM (inactive)
- GI50 [10]: 1.29 µM (inactive)
- GI50 [11]: 15.5 µM (inactive)
- GI50 [12]: 10.8 µM (inactive)
- GI50 [13]: 6.58 µM (inactive)
- GI50 [14]: 2.58 µM (inactive)
- GI50 [16]: 2.28 µM (inactive)
- GI50 [17]: 2.21 µM (inactive)
- GI50 [18]: 3.51 µM (inactive)
- GI50 [54]: 11.2 µM (inactive)
- GI50 [19]: 9.2 µM (inactive)
- GI50 [57]: 11.5 µM (inactive)
- GI50 [20]: 3.64 µM (inactive)
- GI50 [21]: 5.16 µM (inactive)
- GI50 [22]: 2.38 µM (inactive)
- GI50 [23]: 2.86 µM (inactive)
- GI50 [24]: 13.3 µM (inactive)
- GI50 [55]: 2.01 µM (inactive)
- GI50 [25]: 5.64 µM (inactive)
- GI50 [26]: 4.85 µM (inactive)
- GI50 [27]: 2.88 µM (inactive)
- GI50 [28]: 11.9 µM (inactive)
- GI50 [29]: 17 µM (inactive)
- GI50 [30]: 4.04 µM (inactive)
- GI50 [31]: 2.14 µM
- GI50 [32]: 11.8 µM (inactive)
- GI50 [33]: 14.3 µM (inactive)
- GI50 [34]: 5.9 µM (inactive)
- GI50 [35]: 16.3 µM (inactive)
- GI50 [36]: 13.8 µM (inactive)
- GI50 [37]: 10.3 µM (inactive)
- GI50 [38]: 3.24 µM (inactive)
- GI50 [39]: 13.6 µM (inactive)
- GI50 [41]: 12.1 µM (inactive)
- GI50 [42]: 11.4 µM (inactive)
- GI50 [43]: 5.78 µM (inactive)
- GI50 [44]: 14.5 µM (inactive)
- GI50 [45]: 2.83 µM (inactive)
- GI50 [46]: 3.87 µM (inactive)
- GI50 [47]: 5.32 µM (inactive)
- GI50 [48]: 2.15 µM (inactive)
- GI50 [49]: 7.94 µM (inactive)
- GI50 [50]: 4.35 µM (inactive)
- GI50 [51]: 3.28 µM (inactive)
- GI50 [56]: 2.74 µM (inactive)
- GI50 [52]: 14 µM (inactive)
- GI50 [53]: 5.06 µM (inactive)
- GI50 [58]: 2.77 µM (inactive)

Structure (SMILES): Cc1nnc2n1N=C(c1cc(F)c(Cl)cc1Cl)/C(=C/c1ccc(-c3ccc([N+](=O)[O-])cc3)o1)S2
- GI50 [1]: > 100 µM (inactive)
- GI50 [2]: > 100 µM (inactive)
- GI50 [3]: > 100 µM (inactive)
- GI50 [4]: > 100 µM (inactive)
- GI50 [5]: > 100 µM (inactive)
- GI50 [6]: 31.8 µM (inactive)
- GI50 [7]: > 100 µM (inactive)
- GI50 [8]: 34.2 µM (inactive)
- GI50 [10]: > 100 µM (inactive)
- GI50 [11]: > 100 µM (inactive)
- GI50 [12]: 42.6 µM (inactive)
- GI50 [13]: > 100 µM (inactive)
- GI50 [14]: > 100 µM (inactive)
- GI50 [15]: > 100 µM (inactive)
- GI50 [16]: 69.2 µM (inactive)
- GI50 [17]: 32.7 µM (inactive)
- GI50 [19]: > 100 µM (inactive)
- GI50 [20]: > 100 µM (inactive)
- GI50 [21]: 37.2 µM (inactive)
- GI50 [22]: 39.6 µM (inactive)
- GI50 [24]: 34.3 µM (inactive)
- GI50 [55]: 33.2 µM (inactive)
- GI50 [25]: > 100 µM (inactive)
- GI50 [27]: 44 µM (inactive)
- GI50 [28]: 47.4 µM (inactive)
- GI50 [29]: > 100 µM (inactive)
- GI50 [30]: 71.8 µM (inactive)
- GI50 [31]: 53.5 µM
- GI50 [32]: > 100 µM (inactive)
- GI50 [33]: > 100 µM (inactive)
- GI50 [34]: 78.3 µM (inactive)
- GI50 [35]: 46.3 µM (inactive)
- GI50 [37]: 28.6 µM (inactive)
- GI50 [38]: 69.2 µM (inactive)
- GI50 [39]: > 100 µM (inactive)
- GI50 [40]: 56.9 µM (inactive)
- GI50 [41]: 35.7 µM (inactive)
- GI50 [42]: > 100 µM (inactive)
- GI50 [44]: 35.3 µM (inactive)
- GI50 [45]: 29.2 µM (inactive)
- GI50 [46]: 65.9 µM (inactive)
- GI50 [47]: 85.3 µM (inactive)
- GI50 [48]: 34 µM (inactive)
- GI50 [49]: 58.2 µM (inactive)
- GI50 [50]: 46.1 µM (inactive)
- GI50 [51]: 50.4 µM (inactive)
- GI50 [56]: 66.5 µM (inactive)
- GI50 [52]: > 100 µM (inactive)
- GI50 [53]: > 100 µM (inactive)
- GI50 [58]: > 100 µM (inactive)
- GI50 [59]: > 100 µM (inactive)
